From patent US9617311B2, “Use of PEDF-derived polypeptides for promoting stem cells proliferation and wound healing” (Mackay Memorial Hospital, priority 2011, dated 2017)

Legend:
[1] = tested on: full-thickness skin excisional wounds; assay: Skin wound healing in mice, wound area from photographs; format: in vivo, C57L/B6 mice; conditions: for residual epithelial defects, percentage of the original wound: 25 μl skin ointment with 50 μM peptide once daily
Procedure: FIG. 6A provides photographs and FIG. 6B is a histogram, and together, they illustrate the skin (epithelial) wound-healing of mice from treatment groups according to another example of the present disclosure. 4 mm punch wounds were made on the dorsal side of C57/B6 mice. Skin ointment was treated once a day. Photographs of the wounded skin and ruler (scale 10 mm) were captured with a CCD camera (Olympus). The residual epithelial defect (%) is presented as percentage of the original wound. Data are shown as mean±SE.
(§1) To perform full-thickness skin excision, 8- to 10-week-old C57L/B6 mice were respectively anesthetized by an intraperitoneal injection of a mixture of zoletil (6 mg/kg) and xylazine (3 mg/kg). Two full-thickness skin excisional wounds, 4 mm in diameter were made on either side of the dorsal midline using Sklar Tru-Punch disposable biopsy punch (Sklar, West Chester, Pa., USA). In each treatment group (n=6), the skin wound was treated with 25 μl skin ointment (containing 50 μM synthetic peptide and 0.006 μl DMSO vehicle) once daily after the skin scraping. In the control group (n=6), skin wound was treated with 25 μl of skin ointment with equal concentration of DMSO. Each gram of the above skin ointment contains 5 mg neomycin sulfate and 12.5 mg Bacitracin Zinc. Wounds were left uncovered and harvested 4 and 7 days after injury. Mice were housed individually during the healing period.
The area of wound was quantified from the photographs using a computer-assisted image analyzer (Adobe Photoshop CS3 10.0) and was calculated as the percentage of residual epithelial defect at each time point/initial wound area.

[2] = tested on: full-thickness skin excisional wounds; assay: Skin wound healing in mice, histology with Masson's trichrome; format: in vivo, C57L/B6 mice; conditions: for area of GT (granulation tissue), folds over the control group / area of HE tissue, folds over that of the control group / residual epithelial defect, Masson's trichrome sections: day 4 after trauma; for area of GT (granulation tissue), folds over the control group / area of HE tissue, folds over that of the control group: edge of the wound; for residual epithelial defect, Masson's trichrome sections: sections of the middle of the wounds, control 63.8±5.8%; for residual epithelial defects, Masson's trichrome sections: day 7 after trauma, control ointment 43.5±6.5%
Text: FIGS. 7A to 7E provide quantification of wound healing at day 4. […] Arrowheads (▾) and arrows (↓) denote initial wound margins and the foremost tips of the hyperproliferative epithelium (HE; red color), respectively. Data are representative of 10-16 wounds (2 wounds per mouse) in each group. *P<0.02 versus control wound. FIG. 7B is a histogram illustrating the residual epithelial defect (%) in mice from each treatment group; only sections of the middle of the wounds were used for quantification. Data are shown as mean±SE. FIG. 7C provides representative photographs of wound edge. GT: granulation tissue (blue color); Es: eschar (deep-red). […] FIGS. 7D and 7E are histograms providing quantifications of the areas of HE and GT using Adobe Photoshop CS3 10.0. *P<0.02 versus control wound.
FIGS. 8A and 8B provide quantification of wound healing at day 7. […] Arrowheads (▾) and arrows (↓) denote initial wound margins and the foremost tips of the hyperproliferative epithelium, respectively. FIG. 8B is a histogram illustrating the residual epithelial defect (%) in mice from each treatment group; only sections of the middle of the wounds were used for quantification. Data are shown as mean±SE. *P<0.05 versus control wound.
as §1
For histological analysis the complete wounds including 2 mm of the epithelial margins was isolated, bisected, fixed overnight in 4% PFA in PBS, and embedded in paraffin. Sections (5 μm) from the middle of the wound were stained using the Masson's trichrome procedure as described by the manufacturer, in which the epithelium was stained red and connective tissue was stained blue. Photographs were taken using a Leica DC 500 camera (Leica Microsystems).
To further confirm the efficacy of 29-mer and 20-mer on skin wound repair, skin sections from day 4 after trauma were stained using the Masson's trichrome. […] The residual epithelial defect of 29-mer and 20-mer-treated groups were 52.7±6.2% and 49.7±5.6%, respectively; as compared to control animals of 63.8±5.8% (FIG. 7B). In addition, 29-mer treatment elevated the thicknesses of hyper-proliferative epithelial (HE) tissue and granulation tissue (GT) around the edge of the wound (FIG. 7C).
Masson's trichrome was used to stain skin sections obtained from day 7 after trauma for the measurement of the wound closure.

[3] = tested on: hair follicle stem cells (HFSCs); assay: In vitro HFSC proliferation, BrdU pulse-labeling with Lgr6 immunostaining; format: cell-based, Human; conditions: 50 nM peptide or 4.5 nM PEDF in medium; BrdU 2 hours; control 31.9±5.6%
Procedure: FIG. 5A provides immunofluorescence microscopy photographs and FIG. 5B is a histogram, and together, they illustrate the in vitro proliferation of HFSCs from treatment groups according to one example of the present disclosure. HFSC proliferation was determined by BrdU labeling for 2 hours. HFSCs (Lgr6, green) and BrdU (red) were detected by immunofluorescence microscopy (original magnification, ×1000). Twenty randomly selected fields in each group were photographed, and the percentage of BrdU and Lgr6-double positive cells (pale pink) per total Lgr6-positive cells was calculated. *P<0.001 versus untreated cells.
Human hair follicles were collected from hairs of healthy donors. The follicles were dissected with tweezers under microscope and most of adipose and connective tissue was removed. The bulge region of hair follicle under the sebaceous gland was cut and then bulge fragments (including central isthmus) were transferred into a 35-mm dish containing 1 ml of collagenase A (1 mg/ml; Roche) and incubated for 1.5 hours at 37° C. to digest the collagen capsule. Subsequently, the bulge fragments were transferred into a fresh cell culture dish containing dispase II (2.4 U/ml)/0.05% trypsin and further incubated for 1.5 hours at 37° C. to obtain a single cell suspension.
After mechanical dissection and enzymatic digestion, the suspended bulge cells isolated from five bulge fragments were seeded into a well of 12-well culture plate and incubated with the basal medium for 5 days to facilitate cell adhesion. The basal medium contains four parts Gibco calcium-free Dulbecco's modified Eagle's medium (DMEM) and one part Ham's F12 medium (calcium concentration reached about 0.25 mM) and supplemented with 10% FBS, 10 ng/ml human epidermal growth factor, 500 mg/I L-glutamine, 0.2% bovine pituitary extract, […] hydrocortisone, 1% ITSE as well as antibiotic-antimicotic solutions. Cultivation method was similar to that of Blazejewska et al. (Stem Cells 2009; 27:642). After 5 days of incubation, cells were cultured in the serum-free basal medium or basal medium containing 4.5 nM PEDF, 50 nM 29-mer, or 50 nM 20-mer, until near confluence (about 2 weeks; passage 0). The medium was changed every 2 to 3 days. The bulge cells were co-cultured with 3T3 fibroblast feeder cells. For passage, near-confluent cells were harvested by enzymatic treatment (i.e., 0.25% trypsin) for 5 min at 37° C. Approximately 1×10^5 human bulge cells were transferred to a new dish and allowed to grow for 14 days to near confluence (passage 1). […]

[4] = day 4 post-injury, control 61.5±3.2%
[5] = day 7 post-injury, control 44.5±5.3%

For “SLGAEQRTESIIHRALYYDL [20-mer, synthetic peptide identical to residues 11-30 of the 39-mer]”, the “residual epithelial defects, percentage of the original wound” value (shortened to “residual epithelial defects, percentage”) [1, 4] was 50.1±3.8%, the “residual epithelial defects, percentage” value [1, 5] was 20.0±4.9% and the “area of GT (granulation tissue), folds over the control group” value [2] was 1.37±0.17 folds. The “area of HE tissue, folds over that of the control group” value [2] was 1.32±0.21 folds, the “residual epithelial defect, Masson's trichrome sections” value [2] was 49.7±5.6% and the “residual epithelial defects, Masson's trichrome sections” value [2] was 20.8±6.1%. For the same sequence, the “percentage of BrdU and Lgr6-double positive cells per total Lgr6-positive cells” value (from here on “percentage … per total Lgr6-positive cells”) [3] was 79.5±2.6%.
With EQRTESIIHRALYYDLIS [18-mer] the “promotion of skin wound healing” value ([1]; days 4 and 7, 50 μM peptide skin ointment once daily) was “not able to promote wound healing” and the “percentage … per total Lgr6-positive cells” value [3] was 30.1±6.3%.
“SLGAEQRTESIIHRALYYDLISSPDIHGT [29-mer, short synthetic PEDF peptide derived from the 39-mer]” was tested, and the “residual epithelial defects, percentage” value [1, 4] was 46.3±3.7%, the “residual epithelial defects, percentage” value [1, 5] was 18.2±4.3% and the “area of GT (granulation tissue), folds over the control group” value [2] was 1.45±0.23 folds. For the same sequence, the “area of HE tissue, folds over that of the control group” value [2] was 1.41±0.25 folds, the “residual epithelial defect, Masson's trichrome sections” value [2] was 52.7±6.2% and the “residual epithelial defects, Masson's trichrome sections” value [2] was 17.9±3.3%. The “percentage … per total Lgr6-positive cells” value [3] was 86.2±3.9%.
In the case of “SLGAEHRTESVIHRALYYDLITNPDIHST [Mo 29-mer, synthetic peptide derived from mouse PEDF]”, the “residual epithelial defects, percentage” value [1, 4] is reported as 47.8±4.3%, the “residual epithelial defects, percentage” value [1, 5] is reported as 16.8±6.6% and the “residual epithelial defects, Masson's trichrome sections” value [2] is reported as 17.2±7.3%.
With “SLGAEHRTESVIHRALYYDL [Mo 20-mer, synthetic peptide derived from mouse PEDF]” the “residual epithelial defects, percentage” value [1, 4] was 49.6±3.9% and the “residual epithelial defects, percentage” value [1, 5] was 20.3±7.5%.
